The source of these data is paper PMC7764826, “Flavonol Glycosides: In Vitro Inhibition of DPPIV, Aldose Reductase and Combating Oxidative Stress are Potential Mechanisms for Mediating the Antidiabetic Activity of Cleome droserifolia” (Molecules, 2020).

Usually IC50 stands for the midpoint of a concentration-inhibition curve. As a reminder, the melting point is the temperature, or range, at which the solid turns liquid.

Each structure is given as a SMILES string.

A short description of data set [1]: DPPH radical scavenging assay. The conditions noted are these: 30 min, room temperature, 517 nm. How it is done:
The free radical scavenging capacity of the parent extract of C. droserifolia together with the isolated compounds was estimated using 2,2-diphenyl-1-picrylhydrazil (DPPH) as described previously. In brief, 240 µL of 0.004% DPPH in methanol was added to 8 µL of the parent extract and the isolated compounds at different concentrations: (2, 4, 12, 16 µg/mL) and (0.5, 1, 3, 4 µg/mL), respectively. The reaction mixture was mixed and incubated in dark for 30 min at room temperature. The absorbance was then measured at 517 nm against blank that was done using water instead of the plant extract. Ascorbic acid was used as the antioxidant standard and the IC50 value for samples and standard was determined.
(In general: The DPPH test is a chemical assay of radical scavenging.)

The target of a further data set is T1, aldose reductase (Homo sapiens, UniProt P15121).
T1 construct: purchased Biovision
Put plainly: Aldose Reductase Inhibitor Screening Kit (NADPH absorbance at 340 nm). The settings on record: in vitro; for IC50: mean ± SEM of two replicates, read-out: Aldose reductase inhibition IC50 (converted). It counts as biochemical. The protocol:
Determination of the aldose reductase inhibitory effectiveness of the investigated samples was performed kinetically using the Aldose Reductase Inhibitor Screening Kit (Biovision, Milpitas, CA, USA), according to the manufacturer׳s protocol. The decrease in the absorption of NADPH at 340 nm was measured in a mixture containing NADPH, the enzyme and its substrate, DL-glyceraldeyde in addition to test samples [31]. […] A 90 μL of freshly prepared Aldose Reductase Solution was then added and the plate was incubated protected from light at 37 °C for 15–20 min. After incubation, 40 μL enzyme substrate in assay buffer was added and the absorbance was measured at 340 nm kinetically for 60–90 min at 37 °C. A background control free from the enzyme was run and subtracted from the readings. The IC50 was calculated and presented for the samples and the standard.

The target of data set [2] is T2, Dipeptidyl peptidase IV (DPPIV) (Homo sapiens, UniProt P27487).
T2 construct: purchased Abnova
Put plainly: DPPIV Inhibitor Screening Kit (fluorescence). It counts as biochemical. The conditions noted are these: in vitro, mean ± SEM of two replicates; read-out: DPPIV inhibition IC50 (converted). The source says:
The DPPIV Inhibitor Screening Kit (Abnova, Taipei, Taiwan) was used in accordance to the manufacturer׳s protocol.

Data set [3] in a line: Ferric reducing antioxidant power (FRAP) assay. The conditions noted are these: expressed in µM FeCl2; isolated compounds at 200 µg/mL. How it is done:
The antioxidant potential of the extract and the isolated compounds was assessed according to the assay originally designed by Benzie and Strain (1996) using the DetectX® Ferric Reducing Antioxidant Power (FRAP™) Detection Kit by Arbor assays, Ann Arbor, USA. In the provided plate, 75 µL of the prepared FRAP Color Solution was mixed with 20 µL of either the aqueous extract (400 µg/mL), the isolated compounds (200 µg/mL), different concentrations of the standard ferrous chloride or ascorbic acid positive control. The mixture was incubated for 30 min at room temperature and the produced blue colored product was read at 560 nm. The FRAP values were calculated and expressed in µM FeCl2.

The test system of data set [4] is cultured skeletal muscle cells and adipocytes. The arrangement: method as in PMID 21890334. The conditions noted are these: in vitro; cited from earlier work.
Another data set concerns liver (HepG2) carcinoma. The settings on record: cited from earlier work.
Data set [5] has as its target T3, α-amylase from porcine pancreas (Sus scrofa, UniProt P00690).
T3 construct: purchased Sigma Aldrich
T3 sequence (P00690 16-511): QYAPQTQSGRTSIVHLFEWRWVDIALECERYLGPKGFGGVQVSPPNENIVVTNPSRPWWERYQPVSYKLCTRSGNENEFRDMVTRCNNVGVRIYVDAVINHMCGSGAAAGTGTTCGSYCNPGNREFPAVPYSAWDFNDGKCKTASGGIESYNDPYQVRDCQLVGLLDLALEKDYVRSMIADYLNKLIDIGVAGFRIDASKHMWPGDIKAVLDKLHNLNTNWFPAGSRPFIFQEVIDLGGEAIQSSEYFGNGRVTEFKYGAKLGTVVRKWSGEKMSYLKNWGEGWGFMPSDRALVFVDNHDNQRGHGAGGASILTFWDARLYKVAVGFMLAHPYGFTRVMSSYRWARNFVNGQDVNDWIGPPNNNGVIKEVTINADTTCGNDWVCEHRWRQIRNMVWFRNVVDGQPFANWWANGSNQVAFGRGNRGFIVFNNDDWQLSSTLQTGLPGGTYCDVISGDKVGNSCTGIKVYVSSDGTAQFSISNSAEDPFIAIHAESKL
Put plainly: α-amylase inhibition assay (CNPG3 substrate, kinetic). It is filed as biochemical. The settings on record: in vitro, pH 6.9, 37 °C. The protocol:
(§1) Alpha-glucosidase enzyme from Saccharomyces cerevisiae, α-amylase from porcine pancreas and 2-chloro-4-nitrophenyl-α-D-maltotrioside (CNPG3) were purchased from Sigma Aldrich. All other chemicals were purchased from UFC Biotechnology. A microplate reader (Anthos Zenyth-200RT, Cambridge, UK) was used for the spectrophotometric measurements. A Bruker NMR Spectrometer (Bruker, Yokohama, Japan) used for ^1H-NMR (400 MHZ) and ^13C-NMR (100 MHz) analysis. Spectra were recorded in CD3OD or DMSO-d6 using tetramethylsilane (Sigma-Aldrich, St. Louis, MO, USA) as an internal standard, and chemical shift values were expressed in δ ppm.
A pre-incubation mixture was prepared which contained 40 mM phosphate buffer (pH 6.9) together with different concentrations (10, 50, 100, 200 µg/mL) and (5, 20, 50, 100 µg/mL) for the parent extract and the isolated compounds, respectively. […] Then, 2-chloro-4-nitrophenyl maltotrioside (CNPG3) substrate was added where the final concentration was 0.9 µmole/mL. […] A control which was devoid of the test samples was also run in parallel.

For another data set, the system named is colon (HCT116) carcinoma. The conditions noted are these: cited from earlier work.
A further data set has as its system breast (MCF7) carcinoma. The conditions noted are these: cited from earlier work.
Data set [6] has as its target Alpha-glucosidase enzyme from Saccharomyces cerevisiae. Put plainly: α-glucosidase inhibition assay (PNP-G substrate). It counts as biochemical. The conditions noted are these: in vitro, pH 6.9, 37 °C. The protocol: as §1
The tested samples were added to a reaction mixture in a 96-well microplate containing 20 µL of the phosphate buffer and 20 µL of 5 mM p-nitrophenyl α -D-glucopyranoside (PNP-G) in the buffer. […] The IC50 for test compounds as well as the standard was calculated and presented.

T2 sequence (P27487 whole entry, species assumed): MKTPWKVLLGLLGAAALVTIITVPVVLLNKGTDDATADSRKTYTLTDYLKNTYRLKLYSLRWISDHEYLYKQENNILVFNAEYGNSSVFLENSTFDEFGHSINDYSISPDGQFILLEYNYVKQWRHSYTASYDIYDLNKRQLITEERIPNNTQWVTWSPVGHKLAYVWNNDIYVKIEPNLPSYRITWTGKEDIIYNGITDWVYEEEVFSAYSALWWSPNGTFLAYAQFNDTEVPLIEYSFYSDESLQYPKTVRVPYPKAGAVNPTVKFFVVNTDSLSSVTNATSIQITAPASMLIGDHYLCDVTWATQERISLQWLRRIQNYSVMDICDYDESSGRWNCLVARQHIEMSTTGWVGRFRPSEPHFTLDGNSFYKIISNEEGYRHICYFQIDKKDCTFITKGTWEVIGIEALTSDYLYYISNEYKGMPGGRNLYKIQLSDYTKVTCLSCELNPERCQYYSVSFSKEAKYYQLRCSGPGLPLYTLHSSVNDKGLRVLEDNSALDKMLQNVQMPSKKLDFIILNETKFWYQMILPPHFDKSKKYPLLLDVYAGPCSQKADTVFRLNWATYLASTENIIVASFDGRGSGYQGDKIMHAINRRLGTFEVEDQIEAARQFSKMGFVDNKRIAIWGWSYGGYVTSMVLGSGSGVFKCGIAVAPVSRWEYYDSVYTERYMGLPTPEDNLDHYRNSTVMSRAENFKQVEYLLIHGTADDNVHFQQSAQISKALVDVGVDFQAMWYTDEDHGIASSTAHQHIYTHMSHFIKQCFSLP

Consider `C[C@@H]1O[C@@H](Oc2cc(O)c3c(=O)c(O[C@@H]4O[C@H](CO)[C@@H](O)[C@H](O)[C@H]4O)c(-c4ccc(O)c(O)c4)oc3c2)[C@H](O)[C@H](O)[C@H]1O` [Compound 1, quercetin-3-O-β-D-glucosyl-7-O-α-rhamnoside], for which, in data set [1], the “DPPH radical scavenging IC50” value is 5.67 ± 0.09 mg/L. Moreover, the concentration for half-maximal inhibition (IC50) at aldose reductase is 50 µM; in [2], 0.318 µM. In data set [3], this molecule had an FRAP value of 3106 ± 52.2 µM.
Take `COc1cc(-c2oc3cc(O[C@@H]4O[C@H](CO)[C@@H](O)[C@H](O)[C@H]4O[C@@H]4O[C@@H](C)[C@H](O)[C@@H](O)[C@H]4O)cc(O)c3c(=O)c2O)ccc1O` [Compound 2, isorhamnetin-7-O-β-D-neohesperidoside]: the melting point is 225 °C. For the same molecule, the IC50 at aldose reductase is 8.73 µM. In addition, the IC50 in data set [2] is 0.917 µM.
Turning to `COc1cc(-c2oc3cc(O)cc(O)c3c(=O)c2O[C@@H]2O[C@H](CO)[C@@H](O)[C@H](O)[C@H]2O)ccc1O` [Compound 3, isorhamnetin-3-O-β-D-glucoside], the IC50 on aldose reductase was 45 µM; in data set [2], 0.721 µM.
`COc1ccc(-c2oc3cc(O[C@@H]4O[C@@H](C)[C@H](O)[C@@H](O)[C@H]4O)cc(O)c3c(=O)c2O[C@@H]2O[C@@H](C)[C@H](O)[C@@H](O)[C@H]2O)cc1` [Compound 4, kaempferol-4′-methoxy-3,7-O-α-dirhamnoside]: in data set [4], the “Effect on basal glucose uptake (in words)” value is reported as “significant insulin-like effects”. For the same molecule, the “Cytotoxic activity (in words)” value with liver (HepG2) carcinoma, in the data set with colon (HCT116) carcinoma and in the data set on breast (MCF7) carcinoma was “potent cytotoxic activities” in each case. In addition, the “DPPH radical scavenging IC50” value in data set [1] came out at 9.44 ± 0.13 mg/L. Further, the IC50 is 258 µM in data set [5], 51.8 µM at aldose reductase and 0.474 µM in data set [2]. In data set [3], this molecule registered an FRAP value of 1812 ± 33.2 µM. The “α-glucosidase inhibition IC50” value in data set [6] was found to be 110.09 ± 4.2 mg/L.
In turn, `COc1cc(-c2oc3cc(O[C@@H]4O[C@@H](C)[C@H](O)[C@@H](O)[C@H]4O)cc(O)c3c(=O)c2O[C@@H]2O[C@@H](C)[C@H](OC(C)=O)[C@@H](O)[C@H]2O)ccc1O` [Compound 5, isorhamnetin-3-O-α-(4″- acetylrhamnoside)-7-O-α-rhamnoside] returned a melting point of 257 °C. Further, the “Effect on basal glucose uptake (in words)” value in data set [4] is “significant insulin-like effects”. Besides, in the data set on liver (HepG2) carcinoma, the “Cytotoxic activity (in words)” value is recorded as “potent cytotoxic activities”. Also, the “DPPH radical scavenging IC50” value in data set [1] stood at 11.45 ± 0.48 mg/L. The IC50 in [5] was 163 µM. On aldose reductase, the “Aldose reductase inhibitory activity (in words)” value is recorded as “least aldose reductase inhibitory activity” and the IC50 was 119 µM. The FRAP value in [3] is listed as 3610 ± 88.3 µM. For the same molecule, the “Cytotoxic activity (in words)” value in the data set on colon (HCT116) carcinoma is “potent cytotoxic activities”. Also, the “Cytotoxic activity (in words)” value with breast (MCF7) carcinoma was “potent cytotoxic activities”. Also, the “α-glucosidase inhibition IC50” value in [6] amounted to 86.54 ± 3.8 mg/L.
For `O=C1O[C@H]([C@@H](O)CO)C(O)=C1O` [ascorbic acid, reference compound], in data set [1], the “DPPH radical scavenging IC50” value was 1.37 ± 0.07 mg/L. In [3], this molecule had an FRAP value of 685.2 ± 1.07 µM.
